# From the C3SDB collision cross section collection
# Several values for one entry are separate records, joined by “and”; a condition that tells them apart may be missing. Identical values can stand only once.
# Details: [M+Na]+; instrument: TW; calibrated with polyalanine
row,collision cross section (N2) [Å²],SMILES
1,138,OC[C@H]1OC(O)[C@H](O)[C@@H](O)[C@@H]1O (some centres not stated) [Glucose]
2,132,O=C(O)C(CO)OP(=O)(O)O (configuration not stated) [2-Phosphoglyceric acid]
3,138,O=C(O)CC(O)(CC(=O)O)C(=O)O [Citric acid]
4,153,CC(=O)N[C@@H]1[C@@H](O)[C@H](O)[C@@H](CO)O[C@H]1O [Acetylglucosamine]
5,136,OC[C@H]1OC(O)[C@H](O)[C@@H](O)[C@H]1O (some centres not stated) [Galactose]
6,135,OCC1(O)OC[C@@H](O)[C@@H](O)[C@@H]1O (some centres not stated) [Fructose]

# Same assay, conditions: [M]+; instrument: TW; calibrated with polyalanine
row,collision cross section (N2) [Å²],SMILES
1,117,C[N+](C)(C)CCO [Choline]
2,184,C[S+](CC[C@H](N)C(=O)[O-])C[C@H]1O[C@@H](n2cnc3c(N)ncnc32)[C@H](O)[C@@H]1O (some centres not stated) [SAMe]

# Details: [M+H]+; instrument: DT; single field
row,collision cross section (N2),SMILES
1,292.57 Å²,CCCCCCCC/C=C\CCCCCCCCCCCC(=O)OC[C@H](COP(=O)([O-])OCC[N+](C)(C)C)OC(=O)CCCCCCCCCCCCC [PC(36:1)]
2,282.64 Å² and 284.2 Å²,CCCCCC/C=C\CCCCCCCCCC(=O)OC[C@H](COP(=O)([O-])OCC[N+](C)(C)C)OC(=O)CCCCCCC/C=C\CCCCCC [PC(34:2)]

# Same assay, conditions: [M+Na]+; instrument: DT; single field
row,collision cross section (N2) [Å²],SMILES
1,294,CCCCCCCC/C=C\CCCCCCCCCCCC(=O)OC[C@H](COP(=O)([O-])OCC[N+](C)(C)C)OC(=O)CCCCCCCCCCCCC [PC(36:1)]

# Details: [M-H]-; instrument: TW; calibrated with phosphatidylcholines (ESI+) and phosphatidylethanolamines (ESI-)
row,collision cross section (N2) [Å²],SMILES
1,271.4,CCCCC/C=C\C/C=C\CCCCCCCCCC(=O)O[C@H](COC(=O)CCCCCCCCCCCCCC)COP(=O)(O)OC[C@@H](O)CO [PG(35:2)]

# Details: [M+Na]+; instrument: DT; stepped-field
row,collision cross section (N2) [Å²],SMILES
1,147.35,OC[C@H]1OC(O)[C@H](O)[C@@H](O)[C@@H]1O (stereo partly drawn) [a-D-Glucose]

# Same assay, conditions: [M-H]-; instrument: DT; stepped-field
row,collision cross section (N2) [Å²],SMILES
1,165.34,CCCCCCCCCCCCCCC(=O)O [Pentadecanoic acid]
2,184.29,CCCCCCCC/C=C\CCCCCCCCCC(=O)O [cis-Gondoic acid]
3,183.32,"CCCCC/C=C\C/C=C\CCCCCCCCCC(=O)O [cis-11,14-Eicosadienoic acid]"
4,173.41,CCCCCCCCCCCCCCCCC(=O)O [Margaric acid]
5,183.02,CCCCC/C=C\C/C=C\C/C=C\CCCCCCC(=O)O [Dihomo-gamma-Linolenic Acid]

# Details: [M+HCOO]-; instrument: DT; single field, calibrated with Agilent tune mix (Agilent)
row,collision cross section (N2) [Å²],SMILES
1,292.3,CCCCCCCC/C=C\CCCCCCCCCCCC(=O)OC[C@H](COP(=O)([O-])OCC[N+](C)(C)C)OC(=O)CCCCCCCCCCCCC [PC(36:1)]
2,285.5,CCCCCC/C=C\CCCCCCCCCC(=O)OC[C@H](COP(=O)([O-])OCC[N+](C)(C)C)OC(=O)CCCCCCC/C=C\CCCCCC [PC(34:2)]

# Same assay, conditions: [M+H]+; instrument: DT; single field, calibrated with Agilent tune mix (Agilent)
row,collision cross section (N2) [Å²],SMILES
1,293.9,CCCCCCCC/C=C\CCCCCCCCCCCC(=O)OC[C@H](COP(=O)([O-])OCC[N+](C)(C)C)OC(=O)CCCCCCCCCCCCC [PC(36:1)]
2,284.5,CCCCC/C=C\C/C=C\C/C=C\C/C=C\CCCCCC(=O)O[C@H](COC(=O)CCCCCCC/C=C\C/C=C\CCCCC)COP(=O)(O)OCCN [PE(40:6)]
3,285.2,CCCCCC/C=C\CCCCCCCCCC(=O)OC[C@H](COP(=O)([O-])OCC[N+](C)(C)C)OC(=O)CCCCCCC/C=C\CCCCCC [PC(34:2)]

# Same assay, conditions: [M+Na]+; instrument: DT; single field, calibrated with Agilent tune mix (Agilent)
row,collision cross section (N2) [Å²],SMILES
1,297.1,CCCCCCCC/C=C\CCCCCCCCCCCC(=O)OC[C@H](COP(=O)([O-])OCC[N+](C)(C)C)OC(=O)CCCCCCCCCCCCC [PC(36:1)]
2,290.3,CCCCC/C=C\C/C=C\C/C=C\C/C=C\CCCCCC(=O)O[C@H](COC(=O)CCCCCCC/C=C\C/C=C\CCCCC)COP(=O)(O)OCCN [PE(40:6)]
3,289.4,CCCCCC/C=C\CCCCCCCCCC(=O)OC[C@H](COP(=O)([O-])OCC[N+](C)(C)C)OC(=O)CCCCCCC/C=C\CCCCCC [PC(34:2)]

# Same assay, conditions: [M-H]-; instrument: DT; single field, calibrated with Agilent tune mix (Agilent)
row,collision cross section (N2) [Å²],SMILES
1,276.2,CCCCC/C=C\C/C=C\C/C=C\C/C=C\CCCCCC(=O)O[C@H](COC(=O)CCCCCCC/C=C\C/C=C\CCCCC)COP(=O)(O)OCCN [PE(40:6)]

# Details: [M+K]+; instrument: DT; stepped-field
row,collision cross section (N2) [Å²],SMILES
1,294.7,CCCCC/C=C\C/C=C\C/C=C\C/C=C\CCCCCC(=O)O[C@H](COC(=O)CCCCCCC/C=C\C/C=C\CCCCC)COP(=O)(O)OCCN [PE(40:6)]
2,291.3,CCCCCC/C=C\CCCCCCCCCC(=O)OC[C@H](COP(=O)([O-])OCC[N+](C)(C)C)OC(=O)CCCCCCC/C=C\CCCCCC [PC(34:2)]

# Details: [M+H]+; instrument: DT; stepped-field
row,collision cross section (N2) [Å²],SMILES
1,306.2,CCCCCCCC/C=C\CCCCCCCCCCCC(=O)OC[C@H](COP(=O)([O-])OCC[N+](C)(C)C)OC(=O)CCCCCCCCCCCCC [PC(36:1)]
2,302.6,CCCCCC/C=C\CCCCCCCCCC(=O)OC[C@H](COP(=O)([O-])OCC[N+](C)(C)C)OC(=O)CCCCCCC/C=C\CCCCCC [PC(34:2)]

# Same assay, conditions: [M-H]-; instrument: DT; stepped-field
row,collision cross section (N2) [Å²],SMILES
1,278.7,CCCCC/C=C\C/C=C\CCCCCCCCCC(=O)O[C@H](COC(=O)CCCCCCCCCCCCCC)COP(=O)(O)OC[C@@H](O)CO [PG(35:2)]
2,289.4,CCCCC/C=C\C/C=C\C/C=C\C/C=C\CCCCCC(=O)O[C@H](COC(=O)CCCCCCC/C=C\C/C=C\CCCCC)COP(=O)(O)OCCN [PE(40:6)]

# Details: [M+CH3COO]-; instrument: TW; calibrated with phosphatidylcholines (ESI+) and phosphatidylethanolamines (ESI-)
row,collision cross section (N2) [Å²],SMILES
1,294.5,CCCCCCCC/C=C\CCCCCCCCCCCC(=O)OC[C@H](COP(=O)([O-])OCC[N+](C)(C)C)OC(=O)CCCCCCCCCCCCC [PC(36:1)]
2,287.7,CCCCCC/C=C\CCCCCCCCCC(=O)OC[C@H](COP(=O)([O-])OCC[N+](C)(C)C)OC(=O)CCCCCCC/C=C\CCCCCC [PC(34:2)]

# Same assay, conditions: [M+H]+; instrument: TW; calibrated with phosphatidylcholines (ESI+) and phosphatidylethanolamines (ESI-)
row,collision cross section (N2) [Å²],SMILES
1,291.6,CCCCCCCC/C=C\CCCCCCCCCCCC(=O)OC[C@H](COP(=O)([O-])OCC[N+](C)(C)C)OC(=O)CCCCCCCCCCCCC [PC(36:1)]
2,282.9,CCCCC/C=C\C/C=C\C/C=C\C/C=C\CCCCCC(=O)O[C@H](COC(=O)CCCCCCC/C=C\C/C=C\CCCCC)COP(=O)(O)OCCN [PE(40:6)]
3,281.7,CCCCCC/C=C\CCCCCCCCCC(=O)OC[C@H](COP(=O)([O-])OCC[N+](C)(C)C)OC(=O)CCCCCCC/C=C\CCCCCC [PC(34:2)]

# Same assay, conditions: [M-H]-; instrument: TW; calibrated with phosphatidylcholines (ESI+) and phosphatidylethanolamines (ESI-)
row,collision cross section (N2) [Å²],SMILES
1,275.4,CCCCC/C=C\C/C=C\C/C=C\C/C=C\CCCCCC(=O)O[C@H](COC(=O)CCCCCCC/C=C\C/C=C\CCCCC)COP(=O)(O)OCCN [PE(40:6)]

# Details: [M+H]+; instrument: DT; stepped-field
# Remark: another data set of the same source
row,collision cross section (N2) [Å²],SMILES
1,126.98,O=c1cc[nH]c(=O)[nH]1 [Uracil]
2,133.55,Nc1nc(=O)c2[nH]cnc2[nH]1 [Guanine]
3,135.79,Cc1ncc(CO)c(CN)c1O [Pyridoxamine]

# Same assay, conditions: [M+Na]+; instrument: DT; stepped-field
row,collision cross section (N2) [Å²],SMILES
1,148.49,Cc1ncc(CO)c(CN)c1O [Pyridoxamine]

# Same assay, conditions: [M]+; instrument: DT; stepped-field
row,collision cross section (N2) [Å²],SMILES
1,119,C[N+](C)(C)CCO [Choline]

# Details: [M+H]+; instrument: DT; single field, calibrated with Agilent tune mix (Agilent)
row,collision cross section (N2) [Å²],SMILES
1,118.5,O=c1cc[nH]c(=O)[nH]1 [Uracil]
2,117.8,C[N+](C)(C)CCO [Choline]
3,134,Cc1ncc(CO)c(CN)c1O [Pyridoxamine]
